From patent publication US7851637B2, “Compounds and methods for inhibiting the interaction of BCL proteins with binding partners” (Infinity Pharmaceuticals, Inc., priority 2004, dated 2010)

Key:
Bcl-2 = Bcl-2 (Homo sapiens, UniProt P10415); test: Bcl-2 binding affinity analysis (fluorescence polarization binding assay)
In short: (§1)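 Sensitive, quantitative cell-free test: compound incubated with protein, then polarization of emitted fluorescence recorded to gauge affinity.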

Bcl-xL = Bcl-xL (Homo sapiens, UniProt Q07817); test: Bcl-xL binding affinity analysis (fluorescence polarization binding assay); parameters: scale not given here
In short: as §1

Sequence of Bcl-xL (Q07817 whole entry): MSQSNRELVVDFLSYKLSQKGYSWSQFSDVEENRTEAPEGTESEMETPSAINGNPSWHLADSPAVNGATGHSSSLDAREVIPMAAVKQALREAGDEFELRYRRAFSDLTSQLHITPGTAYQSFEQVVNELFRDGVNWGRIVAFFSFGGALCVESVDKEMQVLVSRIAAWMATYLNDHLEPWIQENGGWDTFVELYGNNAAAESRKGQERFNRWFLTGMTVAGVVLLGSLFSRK
Sequence of Bcl-2 (P10415 whole entry): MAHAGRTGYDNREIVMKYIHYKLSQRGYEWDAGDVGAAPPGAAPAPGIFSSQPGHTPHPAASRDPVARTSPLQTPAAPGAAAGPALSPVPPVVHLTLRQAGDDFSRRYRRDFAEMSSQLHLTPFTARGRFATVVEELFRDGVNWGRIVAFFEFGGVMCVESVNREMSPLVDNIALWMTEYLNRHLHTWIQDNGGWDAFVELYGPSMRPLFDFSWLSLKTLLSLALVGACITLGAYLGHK

| SMILES | Ki (Bcl-2) [µM] | Bcl-XL binding affinity Ki (Bcl-xL) |
| --- | --- | --- |
| CCCCC[C@H](O)C#Cc1cccc(CN2O[C@@H](CO)[C@@H]([C@H](C)O)[C@H]2C(=O)NCCC(C)C)c1 [Compound 41] | > 50 | ♯ |
| C[C@@H]1[C@@H](NC(=O)[C@@H]2[C@H]([C@H](C)O)[C@H](CO)ON2Cc2cccc(-c3ccc(C(=O)N(C)C)cc3[N+](=O)[O-])c2)C[C@H]2C[C@@H]1C2(C)C [Compound 285] | < 0.8 | ♯ |
| C[C@@H]1[C@@H](NC(=O)[C@@H]2[C@H]([C@H](C)O)[C@H](CO)ON2Cc2cccc(-c3ccc4c(c3)C(=O)N(C)C4=O)c2)C[C@H]2C[C@@H]1C2(C)C [Compound 128] | < 0.8 | ♯ |
| CC(C)C[C@H](CN(C)C)NC(=O)c1cccc(-c2cccc(CN3O[C@@H](CO)[C@@H]([C@H](C)O)[C@H]3C(=O)N[C@H]3C[C@H]4C[C@@H]([C@@H]3C)C4(C)C)c2)c1 [Compound 99] | 0.8 to 6 | ♯♯ |
| CC(C)[C@@H](CN(C)C)NC(=O)c1cccc(-c2cccc(CN3O[C@@H](CO)[C@@H]([C@H](C)O)[C@H]3C(=O)N[C@H]3C[C@H]4C[C@@H]([C@@H]3C)C4(C)C)c2)c1 [Compound 100] | < 0.8 | ♯ |
| CSc1ccccc1CN(Cc1cccc(CN2OC(CO)C(C(C)O)C2C(=O)NC2CC3CC(C2C)C3(C)C)c1)C(CC(C)C)CN(C)C (stereo not shown) [Compound 330] | < 0.8 | ♯ |
| C[C@@H]1[C@@H](NC(=O)[C@@H]2[C@H]([C@H](C)O)[C@H](CO)ON2Cc2cccc(-c3cccc([S+](C)[O-])c3)c2)C[C@H]2C[C@@H]1C2(C)C (stereo partly shown) [Compound 202] | < 0.8 | ♯ |
| COc1c(CN(CCN(C)C)Cc2ccccc2)cccc1CN1O[C@@H](CO)[C@@H]([C@H](C)O)[C@H]1C(=O)NC1C[C@H]2C[C@@H]([C@@H]1C)C2(C)C (stereo partly shown) [Compound 197] | < 0.8 | ♯ |
| C[C@@H]1[C@@H](NC(=O)[C@@H]2[C@H]([C@H](C)O)[C@H](CO)ON2Cc2cccc(N3CCN(C(=S)NCCc4ccccc4)CC3)c2)C[C@H]2C[C@@H]1C2(C)C [Compound 266] | < 0.8 | ♯ |
| CC(O)C1C(CO)ON(Cc2cccc(C(=O)NC(CN(C)C)c3ccccc3)c2)C1C(=O)NC1CC2CC(C1C)C2(C)C (stereo not shown) [Compound 506] | < 0.8 | ♯ |
| CC(O)C1C(CO)ON(Cc2cccc(C(=O)N(CCN(C)C)Cc3ccccc3)c2)C1C(=O)NC1CC2CC(C1C)C2(C)C (stereo not shown) [Compound 504] | < 0.8 | ♯ |
| C[C@@H]1[C@@H](NC(=O)[C@@H]2[C@H]([C@H](C)O)[C@H](CO)ON2Cc2cccc(CN(CCN(C)C)C3CCCCC3)c2)C[C@H]2C[C@@H]1C2(C)C [Compound 211] | < 0.8 | ♯ |
| C[C@@H]1[C@@H](NC(=O)[C@@H]2[C@H]([C@H](C)O)[C@H](CO)ON2Cc2cccc(-c3ccc(C(=O)N(CCN(C)C)Cc4ccccc4)cc3)c2)C[C@H]2C[C@@H]1C2(C)C [Compound 185] | < 0.8 | ♯ |
| C[C@@H]1[C@@H](NC(=O)[C@@H]2[C@H]([C@H](C)O)[C@H](CO)ON2Cc2cccc(N3CCN(C(=S)NCc4ccccc4)CC3)c2)C[C@H]2C[C@@H]1C2(C)C [Compound 263] | < 0.8 | ♯ |
| CC(C)C[C@@H](CN(C)C)N(Cc1ccccc1)Cc1cccc(CN2O[C@@H](CO)[C@@H]([C@H](C)O)[C@H]2C(=O)NCc2ccccc2)c1 [Compound 542] | 0.8 to 6 | ♯ |
| CC(O)C1C(CO)ON(Cc2cccc(CN(CCN(C)C)CC3CC=CCC3)c2)C1C(=O)NC1CC2CC(C1C)C2(C)C (stereo not shown) [Compound 350] | < 0.8 | ♯ |
| CC(C)C[C@@H](CN(C)C)N(Cc1ccccc1)Cc1cccc(CN2O[C@@H](CO)[C@@H]([C@H](C)O)[C@H]2C(=O)NC(C)C)c1 [Compound 539] | 6 to 50 | ♯ |
| CC(O)C1C(CO)ON(Cc2cccc(C(=O)NCCc3ccccc3)c2)C1C(=O)NC1CC2CC(C1C)C2(C)C (stereo not shown) [Compound 503] | < 0.8 | ♯ |
| C[C@@H]1[C@@H](NC(=O)[C@@H]2[C@H]([C@H](C)O)[C@H](CO)ON2Cc2cccc(-c3ccc(NS(C)(=O)=O)cc3)c2)C[C@H]2C[C@@H]1C2(C)C [Compound 298] | < 0.8 | ♯♯ |
| CC(O)C1C(CO)ON(Cc2cccc(CN3CC(c4ccccc4)CC3CN(C)C)c2)C1C(=O)NC1CC2CC(C1C)C2(C)C (stereo not shown) [Compound 457] | < 0.8 | ♯ |
| C[C@@H]1[C@@H](NC(=O)[C@@H]2[C@H]([C@H](C)O)[C@H](CO)ON2Cc2cccc(-c3cccc(C(=O)NCCN(C)C)c3)c2)C[C@H]2C[C@@H]1C2(C)C [Compound 107] | < 0.8 | ♯ |
| CC(O)C1C(CO)ON(Cc2cccc(CN(C)CC(=O)N(C)C)c2)C1C(=O)NC1CC2CC(C1C)C2(C)C (stereo not shown) [Compound 446] | < 0.8 | ♯ |
| C[C@H](O)[C@@H]1[C@H](CO)ON(Cc2cccc(CN(CCN(C)C)Cc3ccccc3)c2)[C@@H]1C(=O)Nc1cccc(-c2ccccc2)c1 [Compound 515] | < 0.8 | ♯ |
| C[C@H](O)[C@@H]1[C@H](CO)ON(Cc2cccc(CN(CCN(C)C)Cc3ccccc3)c2)[C@@H]1C(=O)NC1C[C@H]2C[C@@H]([C@@H]1C)C2(C)C (stereo partly shown) [Compound 221] | < 0.8 | ♯ |
| C[C@@H](O)[C@@H]1C(C(=O)NCCCn2cnc3ccccc32)N(Cc2cccc(C#CCNC(=O)c3ccccc3)c2)O[C@@H]1CO (stereo partly shown) [Compound 55] | > 50 | ♯♯ |
| CC(O)C1C(CO)ON(Cc2cccc(CN(CCN(C)C)Cc3ccccc3N3CCN(C)CC3)c2)C1C(=O)NC1CC2CC(C1C)C2(C)C (stereo not shown) [Compound 385] | < 0.8 | ♯ |

Next, values leading:

| Ki (Bcl-2) [µM] | Bcl-XL binding affinity Ki (Bcl-xL) | SMILES |
| --- | --- | --- |
| 0.8 to 6 | ♯ | C[C@H](O)[C@@H]1[C@H](CO)ON(Cc2cccc(CN(CCN(C)C)Cc3ccccc3)c2)[C@@H]1C(=O)NCCCCc1ccccc1 [Compound 519] |
| 0.8 to 6 | ♯ | C[C@H](O)[C@@H]1[C@H](CO)ON(Cc2cccc(CN(CCN(C)C)Cc3ccccc3)c2)[C@@H]1C(=O)NCC(c1ccccc1)c1ccccc1 [Compound 520] |
| 0.8 to 6 | ♯ | CC(C)C[C@@H](CN(C)C)N(Cc1ccccc1)Cc1cccc(CN2O[C@@H](CO)[C@@H]([C@H](C)O)[C@H]2C(=O)NCc2cccc(-c3ccccc3)c2)c1 [Compound 537] |
| 0.8 to 6 | ♯ | C[C@H](O)[C@@H]1[C@H](CO)ON(Cc2cccc(C#CCNC(=O)c3ccccc3)c2)[C@@H]1C(=O)N[C@H]1C[C@H]2CC([C@@H]1C)C2(C)C [Compound 57] |
| < 0.8 | ♯♯ | CC(C)CNC(=O)c1cccc(-c2cccc(CN3O[C@@H](CO)[C@@H]([C@H](C)O)[C@H]3C(=O)N[C@H]3C[C@H]4C[C@@H]([C@@H]3C)C4(C)C)c2)c1 [Compound 151] |
| 0.8 to 6 | ♯ | CC(C)CCNC(=O)[C@@H]1[C@H]([C@H](C)O)[C@H](CO)ON1Cc1cccc(CN(Cc2ccccc2)[C@@H](CC(C)C)CN(C)C)c1 [Compound 533] |
| 6 to 50 | ♯ | CC(C)CNC(=O)[C@@H]1[C@H]([C@H](C)O)[C@H](CO)ON1Cc1cccc(CN(Cc2ccccc2)[C@@H](CC(C)C)CN(C)C)c1 [Compound 540] |
| < 0.8 | ♯ | COc1c(CN2O[C@@H](CO)[C@@H]([C@H](C)O)[C@H]2C(=O)N[C@H]2C[C@H]3C[C@@H]([C@@H]2C)C3(C)C)cccc1-c1cccc(C(=O)NCCN(C)C)c1 [Compound 165] |
| < 0.8 | ♯ | CC(O)C1C(CO)ON(Cc2cccc(C(=O)NC(CC3CCCCC3)CN(C)C)c2)C1C(=O)NC1CC2CC(C1C)C2(C)C (stereo not shown) [Compound 499] |
| < 0.8 | ♯ | CSc1cccc(-c2cccc(CN3O[C@@H](CO)[C@@H]([C@H](C)O)[C@H]3C(=O)N[C@H]3C[C@H]4C[C@@H]([C@@H]3C)C4(C)C)c2)c1 [Compound 201] |
| < 0.8 | ♯ | C[C@@H]1[C@@H](NC(=O)[C@@H]2[C@H]([C@H](C)O)[C@H](COC(=O)NCCN3CCOCC3)ON2Cc2cccc(-c3ccc(C(=O)N(C)C)cc3)c2)C[C@H]2C[C@@H]1C2(C)C [Compound 245] |
| < 0.8 | ♯ | C[C@@H]1[C@@H](NC(=O)[C@@H]2[C@H]([C@H](C)O)[C@H](CO)ON2Cc2cccc(-c3ccc(C(N)=O)cc3)c2)C[C@H]2C[C@@H]1C2(C)C [Compound 134] |
| < 0.8 | ♯ | C[C@H](O)[C@@H]1[C@H](CO)ON(Cc2cccc(-c3ccc(NCCN4CCOCC4)cc3)c2)[C@@H]1C(=O)NC1CC2C[C@@H]([C@@H]1C)C2(C)C (stereo partly shown) [Compound 278] |
| < 0.8 | ♯ | COCCOCCOc1cccc(CN(CCN(C)C)Cc2cccc(CN3OC(CO)C(C(C)O)C3C(=O)NC3CC4CC(C3C)C4(C)C)c2)c1 (stereo not shown) [Compound 407] |
| < 0.8 | ♯ | CC(CN(C)C)NC(=O)c1cccc(-c2cccc(CN3O[C@@H](CO)[C@@H]([C@H](C)O)[C@H]3C(=O)N[C@H]3C[C@H]4C[C@@H]([C@@H]3C)C4(C)C)c2)c1 (stereo partly shown) [Compound 110] |
| < 0.8 | ♯ | C[C@@H]1[C@@H](NC(=O)[C@@H]2[C@H]([C@H](C)O)[C@H](CO)ON2CCCCN(CCN(C)C)Cc2ccccc2-c2ccccc2)C[C@H]2C[C@@H]1C2(C)C [Compound 551] |
| < 0.8 | ♯ | C[C@@H]1[C@@H](NC(=O)[C@@H]2[C@H]([C@H](C)O)[C@H](CO)ON2Cc2cccc(-c3cccc(C(=O)NCCCn4ccnc4)c3)c2)C[C@H]2C[C@@H]1C2(C)C [Compound 123] |
| < 0.8 | ♯ | CCN(CC)CCN(Cc1cccc(CN2OC(CO)C(C(C)O)C2C(=O)NC2CC3CC(C2C)C3(C)C)c1)CC1CCCCC1 (stereo not shown) [Compound 419] |
